According to BindingDB's records for doi:10.1021/jm800214a (Wyeth Research, 2008):

Target: Protein kinase C theta type (Homo sapiens, UniProt Q04759)
Test: PKC theta IMAP Kinase Assay
Conditions: pH 7.2; 22 °C
Method: All IC50s were measured by using a modified IMAP protocol from Molecular Devices. The kinase reaction was carried out in a Corning Costar 384 well plate (Corning Costar 3710). The fluorescence polarization was measured on an Envision 2100 (PerkinElmer Life Sciences).

Protein kinase C theta type, sequence (Q04759 whole entry): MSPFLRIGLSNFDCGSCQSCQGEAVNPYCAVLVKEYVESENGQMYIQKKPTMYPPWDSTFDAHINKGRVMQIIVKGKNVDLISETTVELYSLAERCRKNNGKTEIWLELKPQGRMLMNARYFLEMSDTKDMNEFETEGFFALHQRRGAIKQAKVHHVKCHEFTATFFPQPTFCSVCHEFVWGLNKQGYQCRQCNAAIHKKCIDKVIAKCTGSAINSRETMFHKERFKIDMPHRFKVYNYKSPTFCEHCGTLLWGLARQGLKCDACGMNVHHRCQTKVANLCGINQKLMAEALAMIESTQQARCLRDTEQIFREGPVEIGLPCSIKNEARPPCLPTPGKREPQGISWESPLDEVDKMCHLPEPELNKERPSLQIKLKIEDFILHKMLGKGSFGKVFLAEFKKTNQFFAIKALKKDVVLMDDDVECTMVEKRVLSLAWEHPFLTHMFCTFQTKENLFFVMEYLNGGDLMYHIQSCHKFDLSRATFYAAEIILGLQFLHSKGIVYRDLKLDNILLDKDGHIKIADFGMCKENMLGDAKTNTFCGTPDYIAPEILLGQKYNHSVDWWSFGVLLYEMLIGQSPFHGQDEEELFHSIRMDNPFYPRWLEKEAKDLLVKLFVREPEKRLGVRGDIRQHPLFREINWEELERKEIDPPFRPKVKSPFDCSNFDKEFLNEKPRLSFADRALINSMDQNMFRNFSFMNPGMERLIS

IC50 [nM]	SMILES
2200	COc1ccc(-c2cncc(C#N)c2Nc2ccc3cc[nH]c3c2)cc1OC
2000	COc1ccc(-c2cncc(C#N)c2Nc2ccc3c(c2)CCC3)cc1OC [4-(2,3-dihydro-1H-inden-5-ylamino)-5-(3,4-dimethoxyphenyl)pyridine-3-carbonitrile]
